Experiments:
[1] = test system: Met-1 cells; assay: In vitro chemosensitivity study (CellTiter-Glo, ATP as surrogate for viability); format: cell-based, murine; settings: 72 hours incubation; ATP levels (CellTiter-Glo)
Experimental: (§1) 4,000 Met-1 cells were plated in quadruplicates in 96-well plates containing growth media. The next day, vehicle (PBS) or chemotherapy (doxorubicin: 0.33 nM-2.2 ∝M; paclitaxel: 14 μM-160 μM) was added to the plate and incubated for 72 hours. ATP levels were quantified as a surrogate measure for viability (CellTiter-Glo, Promega) using a luminometer (Perkin-Elmer).
We next tested responsiveness of Met-1 mammary carcinoma to combination doxorubicin (A), cyclophosphamide (C), and paclitaxel (T) chemotherapy, AC-T, a standard of care chemotherapy regimen for breast cancer patients with ER-negative disease. We first tested the sensitivity of Met-1 cells to doxorubicin and paclitaxel in vitro and performed an initial in vivo experiment to identify a therapeutically relevant, well-tolerated combinatorial dose.

[2] = test system: MT-2 WT and KO cell lines; assay: In vitro sensitivity of MT-2 WT and KO cell lines to chemotherapy; format: cell-based, murine
Experimental: as §1, with “Met-1” left out

Compound: CC(=O)O[C@H]1C(=O)[C@@]2(C)[C@H]([C@H](OC(=O)c3ccccc3)[C@]3(O)C[C@H](OC(=O)[C@H](O)[C@@H](NC(=O)c4ccccc4)c4ccccc4)C(C)=C1C3(C)C)[C@]1(OC(C)=O)CO[C@@H]1C[C@@H]2O [paclitaxel]
- viability of Met-1 cells in vitro [1]: significantly decreased viability
- (enhanced) sensitivity of MT-2 KO versus WT in vitro [2]: not apparent

Compound: COc1cccc2c1C(=O)c1c(O)c3c(c(O)c1C2=O)C[C@@](O)(C(=O)CO)C[C@@H]3O[C@H]1C[C@H](N)[C@H](O)[C@H](C)O1 [doxorubicin, Doxorubicin]
- viability of Met-1 cells in vitro [1]: significantly decreased viability
- (enhanced) sensitivity of MT-2 KO versus WT in vitro [2]: not apparent

From patent US20210172934A1, “SINGLE CELL CLONING APPROACHES FOR BIOLOGICAL STUDIES” (priority 2018, published 2021)
